For series [1], the system named is Staphylococcus aureus. The experiment in a line: Antibacterial activity against methicillin-sensitive Staphylococcus aureus 08-49. The format is functional.
The test system of series [2] is Staphylococcus aureus. The experiment in a line: Antibacterial activity against Staphylococcus aureus ATCC 13709. It is filed as functional.
Series [3] deals with Staphylococcus aureus. The experiment in a line: Antibacterial activity against methicillin-resistant Staphylococcus aureus 08-52. It is filed as functional.
The subject of series [4] is Staphylococcus epidermidis. As to the kind of experiment: Antibacterial activity against Staphylococcus epidermidis ATCC 12228. It is filed as functional.
Series [5] concerns Staphylococcus epidermidis. As to the kind of experiment: Antibacterial activity against methicillin-sensitive Staphylococcus epidermidis 08-17. The format is functional.
Series [6] concerns Staphylococcus epidermidis. The experiment in a line: Antibacterial activity against methicillin-resistant Staphylococcus epidermidis 08-18. It is filed as functional.
Series [7] concerns Streptococcus pneumoniae. As to the kind of experiment: Antibacterial activity against Streptococcus pneumoniae ATCC 6301. The format is functional.
Series [8] deals with Streptococcus pneumoniae. The experiment in a line: Antibacterial activity against penicillin-resistant Streptococcus pneumoniae 08-2. The format is functional.
The test system of series [9] is Enterococcus faecalis. The experiment in a line: Antibacterial activity against Enterococcus faecalis ATCC 51299. The format is functional.
Series [10] concerns Enterococcus faecalis. As to the kind of experiment: Antibacterial activity against vancomycin-resistant Enterococcus faecalis EFL1004. It is filed as functional.
Another series concerns Streptococcus pyogenes. The experiment in a line: Antibacterial activity against Streptococcus pyogenes 556. The format is functional.
Series [11] relates to Escherichia coli. The experiment in a line: Antibacterial activity against Escherichia coli ATCC 25922. It is filed as functional.
The test system of series [12] is Escherichia coli. The experiment in a line: Antibacterial activity against Extended spectrum beta-lactamase producing Escherichia coli 08-5. It is filed as functional.
For a further series, the system named is Klebsiella pneumoniae. As to the kind of experiment: Antibacterial activity against Klebsiella pneumoniae ATCC 700603. It is filed as functional.
For a further series, the system named is Pseudomonas aeruginosa. The experiment in a line: Antibacterial activity against Pseudomonas aeruginosa 17. The format is functional.
The next series concerns Shigella sonnei. As to the kind of experiment: Antibacterial activity against Shigella sonnei 51592. It is filed as functional.
In a further series the test system is Salmonella typhi. The experiment in a line: Antibacterial activity against Bacillus typhi 50035. It is filed as functional, Salmonella enterica subsp. enterica serovar Typhi. The settings on record: Salmonella enterica.
The test system of the next series is Enterobacter cloacae. As to the kind of experiment: Antibacterial activity against Enterobacter cloacae 45301. It is filed as functional.
Series [13] concerns Acinetobacter calcoaceticus. The experiment in a line: Antibacterial activity against Acinetobacter calcoaceticus 25001. The format is functional.
The subject of a further series is Klebsiella aerogenes. The experiment in a line: Antibacterial activity against Enterobacter aerogenes 45102. It is filed as functional.
In the next series the test system is Serratia marcescens. The experiment in a line: Antibacterial activity against Serratia marcescens 41002. The format is functional.
The next series relates to Morganella morganii. The experiment in a line: Antibacterial activity against Morganella morganii 49086. The format is functional.
Another series relates to Providencia rettgeri. The experiment in a line: Antibacterial activity against Proteus rettgeri 49006. The format is functional.
In the next series the test system is Proteus vulgaris. The experiment in a line: Antibacterial activity against Proteus vulgaris 56. It is filed as functional.
The nature of series [14]: Cytotoxicity against african green monkey Vero cells after 24 hrs. The settings on record: chlorocebus sabaeus. The format is cell-based.

SMILES strings stand for the structures. Values after ≈ are worked out from the molar mass of the structure shown.

The MIC is the lowest concentration found to suppress growth. One may read the CC50 as the concentration giving 50% cytotoxicity. As for `CCO/N=C1\CCN(c2c(F)cc3c(=O)c(C(=O)O)cn(C4CC4)c3c2OC(F)F)CC1CN` (racemic), the minimal inhibitory concentration (MIC) against Staphylococcus aureus [1] was 0.25 µg/mL (≈ 0.518 µM); in the series with Staphylococcus aureus [2] it was 1 µg/mL (≈ 2.07 µM); with Staphylococcus aureus [3], 2 µg/mL (≈ 4.15 µM); in series [4] it was 2 µg/mL (≈ 4.15 µM); in series [5], 4 µg/mL (≈ 8.29 µM); in series [6], 2 µg/mL (≈ 4.15 µM). The MIC worked out at 8 µg/mL (≈ 16.6 µM) against Streptococcus pneumoniae [7]; 4 µg/mL (≈ 8.29 µM) against Streptococcus pneumoniae [8]; 2 µg/mL (≈ 4.15 µM) against Enterococcus faecalis [9]; 4 µg/mL (≈ 8.29 µM) against Enterococcus faecalis [10]; 16 µg/mL (≈ 33.2 µM) against Streptococcus pyogenes; 4 µg/mL (≈ 8.29 µM) against Escherichia coli [11]. Also, the MIC in the series with Escherichia coli [12] is above 128 µg/mL; against Klebsiella pneumoniae it was 64 µg/mL (≈ 133 µM); against Pseudomonas aeruginosa, 16 µg/mL (≈ 33.2 µM); with Shigella sonnei, 2 µg/mL (≈ 4.15 µM); with Salmonella typhi, 2 µg/mL (≈ 4.15 µM); in the series on Enterobacter cloacae it was 8 µg/mL (≈ 16.6 µM). The MIC in series [13] is 4 µg/mL (≈ 8.29 µM); in the series on Klebsiella aerogenes, 8 µg/mL (≈ 16.6 µM); against Serratia marcescens it was 32 µg/mL (≈ 66.3 µM); in the series on Morganella morganii, 8 µg/mL (≈ 16.6 µM); against Providencia rettgeri, 16 µg/mL (≈ 33.2 µM); in the series on Proteus vulgaris, 8 µg/mL (≈ 16.6 µM). This compound also gave a CC50 at 24 h in series [14] of 203 µg/mL (≈ 421 µM).
Turning to `CO/N=C1\CCN(c2c(F)cc3c(=O)c(C(=O)O)cn(C4CC4)c3c2OC)CC1CN` (racemic), the MIC against Staphylococcus aureus [1] was determined as 0.25 µg/mL (≈ 0.578 µM); with Staphylococcus aureus [2] it was 0.5 µg/mL (≈ 1.16 µM); in the series on Staphylococcus aureus [3], 4 µg/mL (≈ 9.25 µM); in series [4] it was 1 µg/mL (≈ 2.31 µM); in [5] it was 4 µg/mL (≈ 9.25 µM); in [6] it was 4 µg/mL (≈ 9.25 µM). Also, the MIC with Streptococcus pneumoniae [7] was determined as 4 µg/mL (≈ 9.25 µM); in the series on Streptococcus pneumoniae [8], 4 µg/mL (≈ 9.25 µM); against Enterococcus faecalis [9] it was 4 µg/mL (≈ 9.25 µM); in the series with Enterococcus faecalis [10] it was 8 µg/mL (≈ 18.5 µM); against Streptococcus pyogenes, 8 µg/mL (≈ 18.5 µM); against Escherichia coli [11], 4 µg/mL (≈ 9.25 µM). Moreover, the MIC is above 128 µg/mL against Escherichia coli [12]; 64 µg/mL (≈ 148 µM) with Klebsiella pneumoniae; 8 µg/mL (≈ 18.5 µM) against Pseudomonas aeruginosa; 4 µg/mL (≈ 9.25 µM) in the series on Shigella sonnei; 4 µg/mL (≈ 9.25 µM) in the series on Salmonella typhi; above 128 µg/mL in the series with Enterobacter cloacae. For the same compound, the MIC in [13] was 4 µg/mL (≈ 9.25 µM); with Klebsiella aerogenes, 4 µg/mL (≈ 9.25 µM); against Serratia marcescens, 8 µg/mL (≈ 18.5 µM); in the series with Morganella morganii, 4 µg/mL (≈ 9.25 µM); in the series on Providencia rettgeri, 8 µg/mL (≈ 18.5 µM); with Proteus vulgaris, 8 µg/mL (≈ 18.5 µM). Moreover, it took 395 µg/mL (≈ 914 µM) to reach half-maximal cytotoxicity in series [14] (CC50 at 24 h).
With `CCO/N=C1\CCN(c2c(F)cc3c(=O)c(C(=O)O)cn(C4CC4)c3c2F)CC1CN` (racemic), the MIC with Staphylococcus aureus [1] came to 0.25 µg/mL (≈ 0.575 µM); with Staphylococcus aureus [2], 0.5 µg/mL (≈ 1.15 µM); with Staphylococcus aureus [3] it was 1 µg/mL (≈ 2.3 µM); in series [4], 0.25 µg/mL (≈ 0.575 µM); in [5], 2 µg/mL (≈ 4.6 µM); in [6], 0.25 µg/mL (≈ 0.575 µM). In addition, the minimum inhibitory concentration (MIC) with Streptococcus pneumoniae [7] came out at 8 µg/mL (≈ 18.4 µM); in the series with Streptococcus pneumoniae [8] it was 4 µg/mL (≈ 9.21 µM); against Enterococcus faecalis [9], 2 µg/mL (≈ 4.6 µM); with Enterococcus faecalis [10], 2 µg/mL (≈ 4.6 µM); against Streptococcus pyogenes it was 32 µg/mL (≈ 73.7 µM); with Escherichia coli [11], 1 µg/mL (≈ 2.3 µM). Besides, the MIC in the series with Escherichia coli [12] was above 128 µg/mL; in the series with Klebsiella pneumoniae, 32 µg/mL (≈ 73.7 µM); in the series with Pseudomonas aeruginosa, 16 µg/mL (≈ 36.8 µM); against Shigella sonnei it was 0.5 µg/mL (≈ 1.15 µM); against Salmonella typhi, 0.5 µg/mL (≈ 1.15 µM); with Enterobacter cloacae, above 128 µg/mL. Besides, the MIC in series [13] is 2 µg/mL (≈ 4.6 µM); with Klebsiella aerogenes, 2 µg/mL (≈ 4.6 µM); against Serratia marcescens it was 4 µg/mL (≈ 9.21 µM); in the series with Morganella morganii it was 4 µg/mL (≈ 9.21 µM); in the series with Providencia rettgeri, 8 µg/mL (≈ 18.4 µM); against Proteus vulgaris it was 4 µg/mL (≈ 9.21 µM). Besides, the CC50 at 24 h in series [14] is 257 µg/mL (≈ 591 µM).
Regarding `C[C@H]1COc2c(N3CCN(C)CC3)c(F)cc3c(=O)c(C(=O)O)cn1c23.C[C@H]1COc2c(N3CCN(C)CC3)c(F)cc3c(=O)c(C(=O)O)cn1c23.O` [LEVOFLOXACIN], the MIC in the series with Staphylococcus aureus [1] was found to be 0.06 µg/mL; in the series with Staphylococcus aureus [2], 0.06 µg/mL; with Staphylococcus aureus [3], 1 µg/mL; in series [4] it was 0.125 µg/mL; in [5], 1 µg/mL; in series [6], 0.125 µg/mL. Moreover, the MIC in the series on Enterococcus faecalis [9] is 0.25 µg/mL; with Enterococcus faecalis [10], 2 µg/mL; in the series on Streptococcus pyogenes it was 1 µg/mL; in the series with Escherichia coli [11] it was at most 0.03 µg/mL; in the series on Escherichia coli [12], 32 µg/mL; with Pseudomonas aeruginosa, 8 µg/mL. For the same compound, the MIC was at most 0.03 µg/mL in the series on Shigella sonnei; at most 0.03 µg/mL in the series on Salmonella typhi; 0.06 µg/mL against Enterobacter cloacae; 0.25 µg/mL in series [13]; at most 0.03 µg/mL against Klebsiella aerogenes; 0.25 µg/mL against Serratia marcescens. Also, the MIC in the series on Morganella morganii was at most 0.03 µg/mL; in the series with Providencia rettgeri, 0.25 µg/mL; against Proteus vulgaris, at most 0.03 µg/mL.

Source of the values: ChEMBL document CHEMBL1777766, “Design, synthesis and in vitro antibacterial activity of 7-(4-alkoxyimino-3-aminomethylpiperidin-1-yl)fluoroquinolone derivatives” (Bioorg Med Chem Lett, 2011).
